Broadly, the logD is the decadic logarithm of the distribution of all forms, ionised or not, between an organic phase and buffer at a given pH. A low value points to a more hydrophilic compound. A word on the pKa: it is the negative logarithm of the acid dissociation constant. Low readings indicate a group that gives up its proton readily, high ones a group that holds its proton tightly. For orientation: logP means a log measure of how a compound divides between an organic and an aqueous phase. The low end stands for a more hydrophilic compound, the high end for a more lipophilic compound.

The source of these data is ChEMBL document CHEMBL3272293, “Use of distribution coefficients in quantitative structure-activity relationships” (J Med Chem, 1977).

Data set [1] in a line: Uncoupling of oxidative phosphorylation in rat liver mitochondria at pH 5 relative to control. It counts as functional.
Data set [2] can be described thus: Octanol-aqueous phase distribution coefficient, log D of the compound at pH 5. It is filed as physicochemical.
Data set [3] is described as follows: Uncoupling of oxidative phosphorylation in rat liver mitochondria at pH 8 relative to control. It counts as functional.
Data set [4] is described as follows: physchem.
A short description of data set [5]: Octanol-aqueous phase distribution coefficient, log D of the compound at pH 6. It counts as physicochemical.
Data set [6] is described as follows: Octanol-aqueous phase distribution coefficient, log D of the compound at pH 7. It counts as physicochemical.
Data set [7] in a line: Octanol-aqueous phase distribution coefficient, log D of the compound at pH 8. It is filed as physicochemical.
Data set [8] can be described thus: Uncoupling of oxidative phosphorylation in rat liver mitochondria at pH 7 relative to control. It is filed as functional.
The nature of data set [9]: physchem. The following applies: octanol/aqueous phase.
Description: Octanol-aqueous phase partition coefficient, log P of the compound
Data set [10] can be described thus: Uncoupling of oxidative phosphorylation in rat liver mitochondria at pH 6 relative to control. It counts as functional.
Data set [11] is described as follows: physchem. Particulars: octanol/aqueous phase. This is another data set of the same source.
The conditions of data set [12]: octanol/water.
Description: Octanol-water partition coefficient, log P of the compound
The subject of a further data set is Neuron. In words: Increase in membrane potential in mollusc neurons assessed as conductance of potassium at pH 7.8 relative to salicylic acid. It counts as functional, Mollusca.
The nature of data set [13]: physchem. The following applies: pH 7.8.
Description: Dissociation constant, pKa of the compound at pH 7.8
The next data set relates to Colon. The data set is described as follows: Drug absorption in anesthetized rat colon at pH 6.8. It counts as ADME, tissue-based. Particulars: in vivo.
A short description of data set [14]: Octanol-aqueous phase […] of the compound at pH 7.10. It counts as physicochemical. Particulars: pH 7.1.
Data set [15] can be described thus: Dissociation constant, pKa of the compound by titrimetric analysis. It is filed as physicochemical.

Consider `CC(C)CCCCCc1cc([N+](=O)[O-])c(O)c([N+](=O)[O-])c1`, for which the fold change (FC) turned out to be 6.08 in data set [1], 5.41 in data set [3], 5.64 in data set [8] and 5.89 in data set [10]. For the same molecule, the logD worked out at 4.32 in data set [2], 3.42 in [5], 2.42 in data set [6] and 1.42 in data set [7]. This molecule returned a pKa in the data set “physchem [4]” of 4.1. The molecule also displayed a logP in the data set “physchem [9]” of 5.32.

With `Cc1cc([N+](=O)[O-])c(O)c([N+](=O)[O-])c1C`, the fold change (FC) in [1] came out at 4.92; in [3], 3.95; in data set [8], 4.36; in data set [10], 4.51. Besides, the logD in data set [2] was 1.64; in data set [5], 0.74; in data set [6], -0.26; in data set [7], -1.26. The pKa in the data set “physchem [4]” was determined as 4.2. Moreover, the log partition coefficient (logP) in the data set “physchem [9]” was determined as 2.54.

As to `CC(C)CCc1cc([N+](=O)[O-])c(O)c([N+](=O)[O-])c1`, the fold change (FC) in data set [1] was 5.5; in [3], 4.92; in data set [8], 5.18; in data set [10], 5.42. Moreover, the logD in data set [2] is 2.82; in data set [5], 1.92; in [6], 0.92; in data set [7], -0.08. The pKa in the data set “physchem [4]” came out at 4.1. In “physchem [9]”, the log partition coefficient (logP) turned out to be 3.82.

The molecule `O=C(O)c1cc(Cl)cc(Cl)c1O` displayed a logD in “physchem [11]” of -1.62. For the same molecule, the pKa in “physchem [4]” came to 2.3; in the data set “physchem [13]”, 5.5. In [12], this molecule gave a logP of 3.88. The “fold change (FC)” value in the data set on Neuron came to 1.48.

On to `CN1CC[C@]23CCCC[C@H]2[C@H]1Cc1ccc(O)cc13` [LEVORPHANOL], for which the logD in the data set “physchem [11]” came out at 0.02; in [14], 3.02. Also, the log%Abs in the data set with Colon was found to be 1.11. Moreover, the pKa in data set [15] was found to be 3.
